# Assay results reported in BindingDB's records for doi:10.1016/j.bmcl.2004.06.092 (Merck Research Laboratories, 2004).
# pIC50: −log10 of the molar value.
# What was measured:
# [1] = target: T1, Dimer of Gag-Pol polyprotein [489-587,Q496K] (Human immunodeficiency virus 1, UniProt P12497, Q496K); test: Protease Inhibition Assay; details: pH 5.5; 30 °C
# T1 construct: 489-587
# Description: (§1) Assay of HIV protease inhibition was performed by peptide cleavage using the substrate Val-Ser-Gln-Asn-beta-naphthylalanine*Pro-Ile-Val. Products of the cleavage reaction were quantified by HPLC detection, and data were fit to nonlinear least squares equations for determination of steady-state Michaelis-Menten kinetics.
# [2] = target: T2, Dimer of Gag-Pol polyprotein [489-587,Q496K,L499I,M525I,N526D,M535I,R546K,L552P,A560V,G562S,I573V,L579M,I582L] (Human immunodeficiency virus 1, UniProt P12497, A560V/G562S/I573V/I582L/L499I/L552P/L579M/M525I/M535I/N526D/Q496K/R546K); test: Protease Inhibition Assay
# T2 construct: 489-587
# Description: as §1
Compound,pIC50 [1],pIC50 [2]
"Cc1nnc(C[C@H](C[C@H](O)CN2CCN(Cc3ccc(-c4ccc(Cl)cc4)o3)C[C@H]2C(=O)NCC(F)(F)F)C(=O)N[C@H]2c3ccccc3OC[C@H]2O)o1 [(2S)-4-{[5-(4-chlorophenyl)furan-2-yl]methyl}-1-[(2S,4S)-2-hydroxy-4-{[(3S,4S)-3-hydroxy-3,4-dihydro-2H-1-benzopyran-4-yl]carbamoyl}-4-[(5-methyl-1,3,4-oxadiazol-2-yl)methyl]butyl]-N-(2,2,2-trifluoroethyl)piperazine-2-carboxamide]",> 10.82,
"O=C(N[C@H]1c2ccccc2OC[C@H]1O)[C@H](Cc1nnc(-c2ccccc2)o1)C[C@H](O)CN1CCN(Cc2ccc(-c3ccc(Cl)cc3)o2)C[C@H]1C(=O)NCC(F)(F)F [(2S)-4-{[5-(4-chlorophenyl)furan-2-yl]methyl}-1-[(2S,4S)-2-hydroxy-4-{[(3S,4S)-3-hydroxy-3,4-dihydro-2H-1-benzopyran-4-yl]carbamoyl}-4-[(5-phenyl-1,3,4-oxadiazol-2-yl)methyl]butyl]-N-(2,2,2-trifluoroethyl)piperazine-2-carboxamide]",10.72,
"Cc1nnc(C[C@H](C[C@H](O)CN2CCN(C(C)(C)c3ncc(-c4ccc(F)cc4)o3)C[C@H]2C(=O)NCC(F)(F)F)C(=O)N[C@H]2c3ccccc3OC[C@H]2O)o1 [(2S)-4-{2-[5-(4-fluorophenyl)-1,3-oxazol-2-yl]propan-2-yl}-1-[(2S,4S)-2-hydroxy-4-{[(3S,4S)-3-hydroxy-3,4-dihydro-2H-1-benzopyran-4-yl]carbamoyl}-4-[(5-methyl-1,3,4-oxadiazol-2-yl)methyl]butyl]-N-(2,2,2-trifluoroethyl)piperazine-2-carboxamide]",10.57,9.72
"Cc1nnc(C[C@H](C[C@H](O)CN2CCN(C(C)(C)c3ncc(-c4ccc(Cl)cc4)o3)C[C@H]2C(=O)NCC(F)(F)F)C(=O)N[C@H]2c3ccccc3OC[C@H]2O)o1 [(2S)-4-{2-[5-(4-chlorophenyl)-1,3-oxazol-2-yl]propan-2-yl}-1-[(2S,4S)-2-hydroxy-4-{[(3S,4S)-3-hydroxy-3,4-dihydro-2H-1-benzopyran-4-yl]carbamoyl}-4-[(5-methyl-1,3,4-oxadiazol-2-yl)methyl]butyl]-N-(2,2,2-trifluoroethyl)piperazine-2-carboxamide]",10.80,10.22
"COc1cncc(-c2cnc(C(C)(C)N3CCN(C[C@@H](O)C[C@@H](Cc4nnco4)C(=O)N[C@H]4c5ccccc5OC[C@H]4O)[C@H](C(=O)NCC(F)(F)F)C3)o2)c1 [(2S)-1-[(2S,4S)-2-hydroxy-4-{[(3S,4S)-3-hydroxy-3,4-dihydro-2H-1-benzopyran-4-yl]carbamoyl}-4-(1,3,4-oxadiazol-2-ylmethyl)butyl]-4-{2-[5-(5-methoxypyridin-3-yl)-1,3-oxazol-2-yl]propan-2-yl}-N-(2,2,2-trifluoroethyl)piperazine-2-carboxamide]",9.62,8.13
"O=C(N[C@H]1c2ccccc2OC[C@H]1O)[C@H](Cc1nnco1)C[C@H](O)CN1CCN(Cc2ccc(-c3ccc(Cl)cc3)o2)C[C@H]1C(=O)NCC(F)(F)F [(2S)-4-{[5-(4-chlorophenyl)furan-2-yl]methyl}-1-[(2S,4S)-2-hydroxy-4-{[(3S,4S)-3-hydroxy-3,4-dihydro-2H-1-benzopyran-4-yl]carbamoyl}-4-(1,3,4-oxadiazol-2-ylmethyl)butyl]-N-(2,2,2-trifluoroethyl)piperazine-2-carboxamide]",10.82,10.00
"CCCc1nnc(C[C@H](C[C@H](O)CN2CCN(Cc3ccc(-c4ccc(Cl)cc4)o3)C[C@H]2C(=O)NCC(F)(F)F)C(=O)N[C@H]2c3ccccc3OC[C@H]2O)o1 [(2S)-4-{[5-(4-chlorophenyl)furan-2-yl]methyl}-1-[(2S,4S)-2-hydroxy-4-{[(3S,4S)-3-hydroxy-3,4-dihydro-2H-1-benzopyran-4-yl]carbamoyl}-4-[(5-propyl-1,3,4-oxadiazol-2-yl)methyl]butyl]-N-(2,2,2-trifluoroethyl)piperazine-2-carboxamide]",> 10.82,
"CC(C)(c1ncc(-c2ccc(Cl)cc2)o1)N1CCN(C[C@@H](O)C[C@@H](Cc2nnc(-c3ccccc3)o2)C(=O)N[C@H]2c3ccccc3OC[C@H]2O)[C@H](C(=O)NCC(F)(F)F)C1 [(2S)-4-{2-[5-(4-chlorophenyl)-1,3-oxazol-2-yl]propan-2-yl}-1-[(2S,4S)-2-hydroxy-4-{[(3S,4S)-3-hydroxy-3,4-dihydro-2H-1-benzopyran-4-yl]carbamoyl}-4-[(5-phenyl-1,3,4-oxadiazol-2-yl)methyl]butyl]-N-(2,2,2-trifluoroethyl)piperazine-2-carboxamide]",> 10.82,9.74
"CCCc1nnc(C[C@H](C[C@H](O)CN2CCN(C(C)(C)c3ncc(-c4ccc(Cl)cc4)o3)C[C@H]2C(=O)NCC(F)(F)F)C(=O)N[C@H]2c3ccccc3OC[C@H]2O)o1 [(2S)-4-{2-[5-(4-chlorophenyl)-1,3-oxazol-2-yl]propan-2-yl}-1-[(2S,4S)-2-hydroxy-4-{[(3S,4S)-3-hydroxy-3,4-dihydro-2H-1-benzopyran-4-yl]carbamoyl}-4-[(5-propyl-1,3,4-oxadiazol-2-yl)methyl]butyl]-N-(2,2,2-trifluoroethyl)piperazine-2-carboxamide]",> 10.82,9.92
"CCCc1nnc(C[C@H](C[C@H](O)CN2CCN(C(C)(C)c3ncc(-c4cncc(OC)c4)o3)C[C@H]2C(=O)NCC(F)(F)F)C(=O)N[C@H]2c3ccccc3OC[C@H]2O)o1 [(2S)-1-[(2S,4S)-2-hydroxy-4-{[(3S,4S)-3-hydroxy-3,4-dihydro-2H-1-benzopyran-4-yl]carbamoyl}-4-[(5-propyl-1,3,4-oxadiazol-2-yl)methyl]butyl]-4-{2-[5-(5-methoxypyridin-3-yl)-1,3-oxazol-2-yl]propan-2-yl}-N-(2,2,2-trifluoroethyl)piperazine-2-carboxamide]",9.49,
"CC(C)(c1ncc(-c2ccc(F)cc2)o1)N1CCN(C[C@@H](O)C[C@@H](Cc2nnc(-c3ccccc3)o2)C(=O)N[C@H]2c3ccccc3OC[C@H]2O)[C@H](C(=O)NCC(F)(F)F)C1 [(2S)-4-{2-[5-(4-fluorophenyl)-1,3-oxazol-2-yl]propan-2-yl}-1-[(2S,4S)-2-hydroxy-4-{[(3S,4S)-3-hydroxy-3,4-dihydro-2H-1-benzopyran-4-yl]carbamoyl}-4-[(5-phenyl-1,3,4-oxadiazol-2-yl)methyl]butyl]-N-(2,2,2-trifluoroethyl)piperazine-2-carboxamide]",10.70,
"COc1cncc(-c2cnc(C(C)(C)N3CCN(C[C@@H](O)C[C@@H](Cc4nnc(C)o4)C(=O)N[C@H]4c5ccccc5OC[C@H]4O)[C@H](C(=O)NCC(F)(F)F)C3)o2)c1 [(2S)-1-[(2S,4S)-2-hydroxy-4-{[(3S,4S)-3-hydroxy-3,4-dihydro-2H-1-benzopyran-4-yl]carbamoyl}-4-[(5-methyl-1,3,4-oxadiazol-2-yl)methyl]butyl]-4-{2-[5-(5-methoxypyridin-3-yl)-1,3-oxazol-2-yl]propan-2-yl}-N-(2,2,2-trifluoroethyl)piperazine-2-carboxamide]",9.40,7.82
"CC(C)(c1ncc(-c2ccc(Cl)cc2)o1)N1CCN(C[C@@H](O)C[C@@H](Cc2nnco2)C(=O)N[C@H]2c3ccccc3OC[C@H]2O)[C@H](C(=O)NCC(F)(F)F)C1 [(2S)-4-{2-[5-(4-chlorophenyl)-1,3-oxazol-2-yl]propan-2-yl}-1-[(2S,4S)-2-hydroxy-4-{[(3S,4S)-3-hydroxy-3,4-dihydro-2H-1-benzopyran-4-yl]carbamoyl}-4-(1,3,4-oxadiazol-2-ylmethyl)butyl]-N-(2,2,2-trifluoroethyl)piperazine-2-carboxamide]",> 10.82,10.37
"CCCc1nnc(C[C@H](C[C@H](O)CN2CCN(C(C)(C)c3ncc(-c4ccc(F)cc4)o3)C[C@H]2C(=O)NCC(F)(F)F)C(=O)N[C@H]2c3ccccc3OC[C@H]2O)o1 [(2S)-4-{2-[5-(4-fluorophenyl)-1,3-oxazol-2-yl]propan-2-yl}-1-[(2S,4S)-2-hydroxy-4-{[(3S,4S)-3-hydroxy-3,4-dihydro-2H-1-benzopyran-4-yl]carbamoyl}-4-[(5-propyl-1,3,4-oxadiazol-2-yl)methyl]butyl]-N-(2,2,2-trifluoroethyl)piperazine-2-carboxamide]",10.80,9.72
"COc1cncc(-c2cnc(C(C)(C)N3CCN(C[C@@H](O)C[C@@H](Cc4nnc(-c5ccccc5)o4)C(=O)N[C@H]4c5ccccc5OC[C@H]4O)[C@H](C(=O)NCC(F)(F)F)C3)o2)c1 [(2S)-1-[(2S,4S)-2-hydroxy-4-{[(3S,4S)-3-hydroxy-3,4-dihydro-2H-1-benzopyran-4-yl]carbamoyl}-4-[(5-phenyl-1,3,4-oxadiazol-2-yl)methyl]butyl]-4-{2-[5-(5-methoxypyridin-3-yl)-1,3-oxazol-2-yl]propan-2-yl}-N-(2,2,2-trifluoroethyl)piperazine-2-carboxamide]",9.32,
"CC(C)(c1ncc(-c2ccc(F)cc2)o1)N1CCN(C[C@@H](O)C[C@@H](Cc2nnco2)C(=O)N[C@H]2c3ccccc3OC[C@H]2O)[C@H](C(=O)NCC(F)(F)F)C1 [(2S)-4-{2-[5-(4-fluorophenyl)-1,3-oxazol-2-yl]propan-2-yl}-1-[(2S,4S)-2-hydroxy-4-{[(3S,4S)-3-hydroxy-3,4-dihydro-2H-1-benzopyran-4-yl]carbamoyl}-4-(1,3,4-oxadiazol-2-ylmethyl)butyl]-N-(2,2,2-trifluoroethyl)piperazine-2-carboxamide]",10.62,10.19
